Values quoted from earlier work as cited in US11878005B2, “Formulations of deferasirox and methods of making the same” (AustinPx, LLC, priority 2015, dated 2024).

What was measured:
[1] = not given; remark: listed apart in the source

reported water solubility (25° C.): 400 µg/mL | pH dependent solubility (acidic media): insoluble in acidic media | food effect on exposure ([1]; iron overload patients, administered with a high fat meal): two-fold higher exposure | total DFX dose recovered in the feces as unchanged drug ([1]; steady state (7-day dosing)): 84%
Compound: O=C(O)c1ccc(-n2nc(-c3ccccc3O)nc2-c2ccccc2O)cc1 [DFX, Deferasirox]
